Source: US20230322846A9, “NEUROACTIVE STEROIDS AND THEIR METHODS OF USE” (SAGE THERAPEUTICS, INC., priority 2018, published 2023)

These molecules were tested against [35S]-TBPS binding, rat brain cortical membranes (assay: Steroid inhibition of [35S]-TBPS binding). Conditions: 3 nM [35S]-TBPS, in the presence of 5 mM GABA.
Outline: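 Rat cortical P2 membranes incubated 90 min at room temperature with 3 nM [35S]-TBPS, […] and test compound (0.5% DMSO final) in NaCl/Na–K phosphate pH 7.4; nonspecific binding with […]. Filter-bound radioactivity counted; IC50 and Imax from nonlinear fits, mean ± SEM.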
Work on `CC[C@@]1(O)CC[C@H]2[C@@H](CC[C@@H]3[C@@H]2CC[C@]2(C)[C@@H]([C@H](C)Cn4nnc(C)n4)CC[C@@H]32)C1` [Example 334, (3R,5S,8R,9R,10S,13S,14S,17R)-3-ethyl-13-methyl-17-((S)-1-(5-methyl-2H-tetrazol-2-yl)propan-2-yl)hexadecahydro-1H-cyclopenta[a]phenanthren-3-ol] yielded an IC50 of at least 10000 nM.
In the case of `CC[C@@]1(O)CC[C@H]2[C@@H](CC[C@@H]3[C@@H]2CC[C@]2(C)[C@@H]([C@@H](C)Cn4nnnc4C)CC[C@@H]32)C1` [Example 335, (3R,5S,8R,9R,10S,13S,14S,17R)-3-ethyl-13-methyl-17-((R)-1-(5-methyl-1H-tetrazol-1-yl)propan-2-yl)hexadecahydro-1H-cyclopenta[a]phenanthren-3-ol], the IC50 is reported as 100 to 1000 nM.
With `CC[C@@]1(O)CC[C@H]2[C@@H](CC[C@@H]3[C@@H]2CC[C@]2(C)[C@@H]([C@H](C)Cn4nnnc4C)CC[C@@H]32)C1` [Example 336, (3R,5S,8R,9R,10S,13S,14S,17R)-3-ethyl-13-methyl-17-((S)-1-(5-methyl-1H-tetrazol-1-yl)propan-2-yl)hexadecahydro-1H-cyclopenta[a]phenanthren-3-ol] the IC50 was at least 10000 nM.
For `CCC[C@@]1(O)CC[C@@]2(C)[C@H](CC[C@@H]3[C@@H]2[C@H](O)C[C@]2(C)[C@@H]([C@@H](C)Cn4cc(C#N)cn4)CC[C@@H]32)C1` [Example 337, 1-((R)-2-((3R,5R,8S,9S,10S,11R,13S,14S,17R)-3,11-dihydroxy-10,13-dimethyl-3-propylhexadecahydro-1H-cyclopenta[a]phenanthren-17-yl)propyl)-1H-pyrazole-4-carbonitrile], the IC50 was 100 to 1000 nM.
With `CCC[C@@]1(O)CC[C@@]2(C)[C@H](CC[C@@H]3[C@@H]2[C@H](O)C[C@]2(C)[C@@H]([C@H](C)Cn4cc(C#N)cn4)CC[C@@H]32)C1` [Example 338, 1-((S)-2-((3R,5R,8S,9S,10S,11R,13S,14S,17R)-3,11-dihydroxy-10,13-dimethyl-3-propylhexadecahydro-1H-cyclopenta[a]phenanthren-17-yl)propyl)-1H-pyrazole-4-carbonitrile] the IC50 was 100 to 1000 nM.
For `C[C@H](Cn1cc(C#N)cn1)[C@H]1CC[C@H]2[C@@H]3CC[C@@H]4C[C@@](O)(C5CC5)CC[C@@H]4[C@H]3CC[C@]12C` [Example 342, 1-((S)-2-((3R,5R,8R,9R,10S,13S,14S,17R)-3-cyclopropyl-3-hydroxy-13-methylhexadecahydro-1H-cyclopenta[a]phenanthren-17-yl)propyl)-1H-pyrazole-4-carbonitrile], the IC50 was 100 to 1000 nM.
Molecule `CC(C)[C@@]1(O)CC[C@H]2[C@H](CC[C@@H]3[C@@H]2CC[C@]2(C)[C@@H]([C@@H](C)Cn4cc(C#N)cn4)CC[C@@H]32)C1` [Example 343, 1-((R)-2-((3R,5R,8R,9R,10S,13S,14S,17R)-3-hydroxy-3-isopropyl-13-methylhexadecahydro-1H-cyclopenta[a]phenanthren-17-yl)propyl)-1H-pyrazole-4-carbonitrile] has an IC50 of 100 to 1000 nM.
With `CC(C)[C@@]1(O)CC[C@H]2[C@H](CC[C@@H]3[C@@H]2CC[C@]2(C)[C@@H]([C@H](C)Cn4cc(C#N)cn4)CC[C@@H]32)C1` [Example 344, 1-((S)-2-((3R,5R,8R,9R,10S,13S,14S,17R)-3-hydroxy-3-isopropyl-13-methylhexadecahydro-1H-cyclopenta[a]phenanthren-17-yl)propyl)-1H-pyrazole-4-carbonitrile] the IC50 was at least 10000 nM.
`C[C@@H](Cn1cc(C#N)cn1)[C@@]1(O)CC[C@H]2[C@@H]3CC[C@@H]4C[C@](C)(O)CC[C@@H]4[C@H]3CC[C@@]21C` [Example 345, 1-((S)-2-((3R,5R,8R,9R,10S,13S,14S,17S)-3,17-dihydroxy-3,13-dimethylhexadecahydro-1H-cyclopenta[a]phenanthren-17-yl)propyl)-1H-pyrazole-4-carbonitrile] gave an IC50 of 1000 to 10000 nM.
For `C[C@H](Cn1cc(C#N)cn1)[C@@]1(O)CC[C@H]2[C@@H]3CC[C@@H]4C[C@](C)(O)CC[C@@H]4[C@H]3CC[C@@]21C` [Example 346, 1-((R)-2-((3R,5R,8R,9R,10S,13S,14S,17S)-3,17-dihydroxy-3,13-dimethylhexadecahydro-1H-cyclopenta[a]phenanthren-17-yl)propyl)-1H-pyrazole-4-carbonitrile], the IC50 was 1000 to 10000 nM.
`CCC[C@@]1(O)CC[C@H]2[C@H](CC[C@@H]3[C@@H]2CC[C@@]2(C)[C@H]3CC[C@]2(O)[C@@H](C)Cn2cc(C#N)cn2)C1` [Example 347, 1-((S)-2-((3R,5R,8R,9R,10S,13S,14S,17S)-3,17-dihydroxy-13-methyl-3-propylhexadecahydro-1H-cyclopenta[a]phenanthren-17-yl)propyl)-1H-pyrazole-4-carbonitrile] was tested, and the IC50 was 1000 to 10000 nM.
`CCC[C@@]1(O)CC[C@H]2[C@H](CC[C@@H]3[C@@H]2CC[C@@]2(C)[C@H]3CC[C@]2(O)[C@H](C)Cn2cc(C#N)cn2)C1` [Example 348, 1-((R)-2-((3R,5R,8R,9R,10S,13S,14S,17S)-3,17-dihydroxy-13-methyl-3-propylhexadecahydro-1H-cyclopenta[a]phenanthren-17-yl)propyl)-1H-pyrazole-4-carbonitrile] was tested, and the IC50 was 1000 to 10000 nM.
Molecule `CCC[C@@]1(O)CC[C@H]2[C@@H](CC[C@@H]3[C@@H]2CC[C@]2(C)[C@@H]([C@@H](C)Cn4cc(C#N)cn4)CC[C@@H]32)C1` [Example 349, 1-((R)-2-((3R,5S,8R,9R,10S,13S,14S,17R)-3-hydroxy-13-methyl-3-propylhexadecahydro-1H-cyclopenta[a]phenanthren-17-yl)propyl)-1H-pyrazole-4-carbonitrile] has an IC50 of at least 10000 nM.
`CCC[C@@]1(O)CC[C@H]2[C@@H](CC[C@@H]3[C@@H]2CC[C@]2(C)[C@@H]([C@H](C)Cn4cc(C#N)cn4)CC[C@@H]32)C1` [Example 350, 1-((S)-2-((3R,5S,8R,9R,10S,13S,14S,17R)-3-hydroxy-13-methyl-3-propylhexadecahydro-1H-cyclopenta[a]phenanthren-17-yl)propyl)-1H-pyrazole-4-carbonitrile] was tested, and the IC50 was at least 10000 nM.
For `COC[C@@]1(O)CC[C@@]2(C)[C@H](CC[C@@H]3[C@@H]2CC[C@@]2(C)[C@H]3CC[C@]2(O)[C@@H](C)Cn2cc(C#N)cn2)C1` [Example 351, 1-((S)-2-((3R,5R,8R,9S,10S,13S,14S,17S)-3,17-dihydroxy-3-(methoxymethyl)-10,13-dimethylhexadecahydro-1H-cyclopenta[a]phenanthren-17-yl)propyl)-1H-pyrazole-4-carbonitrile], the IC50 was 1000 to 10000 nM.
For `COC[C@@]1(O)CC[C@@]2(C)[C@H](CC[C@@H]3[C@@H]2CC[C@@]2(C)[C@H]3CC[C@]2(O)[C@H](C)Cn2cc(C#N)cn2)C1` [Example 352, 1-((R)-2-((3R,5R,8R,9S,10S,13S,14S,17S)-3,17-dihydroxy-3-(methoxymethyl)-10,13-dimethylhexadecahydro-1H-cyclopenta[a]phenanthren-17-yl)propyl)-1H-pyrazole-4-carbonitrile], the IC50 was 1000 to 10000 nM.
`COC[C@@]1(O)CC[C@H]2[C@H](CC[C@@H]3[C@@H]2CC[C@@]2(C)[C@H]3CC[C@]2(O)[C@H](C)Cn2cc(C#N)cn2)C1` [Example 353] gave an IC50 of 1000 to 10000 nM.
For `COC[C@@]1(O)CC[C@H]2[C@H](CC[C@@H]3[C@@H]2CC[C@@]2(C)[C@H]3CC[C@]2(O)[C@@H](C)Cn2cc(C#N)cn2)C1` [Example 354], the IC50 was 1000 to 10000 nM.
In the case of `C[C@@]1(O)CC[C@H]2[C@H](CC[C@@H]3[C@@H]2CC[C@]2(C)[C@@H]([C@H](C#N)Cn4cc(C#N)cn4)CC[C@@H]32)C1` [Example 355, 1-((S)-2-cyano-2-((3R,5R,8R,9R,10S,13S,14S,17R)-3-hydroxy-3,13-dimethylhexadecahydro-1H-cyclopenta[a]phenanthren-17-yl)ethyl)-1H-pyrazole-4-carbonitrile], the IC50 is reported as under 100 nM.
`C[C@@]1(O)CC[C@H]2[C@H](CC[C@@H]3[C@@H]2CC[C@]2(C)[C@@H]([C@@H](C#N)Cn4cc(C#N)cn4)CC[C@@H]32)C1` [Example 356, 1-((R)-2-cyano-2-((3R,5R,8R,9R,10S,13S,14S,17R)-3-hydroxy-3,13-dimethylhexadecahydro-1H-cyclopenta[a]phenanthren-17-yl)ethyl)-1H-pyrazole-4-carbonitrile] was tested, and the IC50 was under 100 nM.
For `CC[C@@]1(O)CC[C@@]2(C)[C@@H](CC[C@@H]3[C@@H]2CC[C@]2(C)[C@@H]([C@@H](C)Cn4nnc(C)n4)CC[C@@H]32)C1` [Example 359, (3R,5S,8R,9S,10S,13S,14S,17R)-3-ethyl-10,13-dimethyl-17-((R)-1-(5-methyl-2H-tetrazol-2-yl)propan-2-yl)hexadecahydro-1H-cyclopenta[a]phenanthren-3-ol], the IC50 was at least 10000 nM.
Molecule `CC[C@@]1(O)CC[C@@]2(C)[C@@H](CC[C@@H]3[C@@H]2CC[C@]2(C)[C@@H]([C@H](C)Cn4nnc(C)n4)CC[C@@H]32)C1` [Example 360, (3R,5S,8R,9S,10S,13S,14S,17R)-3-ethyl-10,13-dimethyl-17-((S)-1-(5-methyl-2H-tetrazol-2-yl)propan-2-yl)hexadecahydro-1H-cyclopenta[a]phenanthren-3-ol] has an IC50 of 1000 to 10000 nM.
Molecule `CCC[C@@]1(O)CC[C@H]2[C@H](CC[C@@H]3[C@@H]2CC[C@]2(C)[C@@H]([C@@H](C)Cn4cc(C#N)cn4)[C@H](O)C[C@@H]32)C1` [Example 362, 1-((R)-2-((3R,5R,8R,9R,10S,13S,14S,16R,17R)-3,16-dihydroxy-13-methyl-3-propylhexadecahydro-1H-cyclopenta[a]phenanthren-17-yl)propyl)-1H-pyrazole-4-carbonitrile] has an IC50 of 1000 to 10000 nM.
